Data from the supplement of paper PMC4649846.

Key:
MDA-MB-231 [1] = conditions: incubation time: 72 h
Method: (§1)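 MDA-MB-231 breast cancer cells were transfected with siBRCA1 or non-targeting siControl, then seeded 24 h later at 4000 cells/well in 384-well plates holding 198 drugs at 5 concentrations. Viability was read by CellTiter-Blue after 72 h at 37 °C. Dose-response curves were fitted in Dotmatics to give IC50 and a drug sensitivity score (DSS: area under the curve relative to the area between the 10% threshold and 100% inhibition, normalised by the log of the top response). The dose range is not stated. IC50 values of 8333.3 or 4166.7 nM mark no response (top dose), and 0.8333 nM is the lower limit.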

MDA-MB-231 [2] = experiment: drug sensitivity score (DSS); higher = more sensitive; extreme values may be limits of the assay; conditions: incubation time: 72 h
Method: as §1

[3] = siRNA: siControl (non-targeting)

SMILES	IC50 of cell viability (MDA-MB-231 [1]; siRNA: siBRCA1)	IC50 of cell viability (MDA-MB-231 [1]; [3])	drug sensitivity score (MDA-MB-231 [2]; siRNA: siBRCA1)	drug sensitivity score (MDA-MB-231 [2]; [3])
Cn1nnc2c(C(N)=O)ncn2c1=O [Temozolomide]	> 4.17 µM	> 4.17 µM	0	0
COc1c(C)cnc(Cn2cnc3c(Cl)nc(N)nc32)c1C [BIIB021]	0.869 µM	1.29 µM	8.95	9.35
Cc1[nH]c2ccccc2c1CCNCc1ccc(/C=C/C(=O)NO)cc1 [Panobinostat]	0.0317 µM	0.0275 µM	28.7	29.6
C[C@H]1C[C@@H]2[C@H]([C@@H](O)C[C@@]3(C)[C@H]2CC[C@]3(O)C(=O)CO)[C@@]2(C)C=CC(=O)C=C12 [Methylprednisolone]	> 4.17 µM	> 4.17 µM	0	0
CC1(C)CNc2cc(NC(=O)c3cccnc3NCc3ccncc3)ccc21 [Motesanib]	> 4.17 µM	> 4.17 µM	0	0
COc1ccc(-c2ccc3c(N4CCOC[C@@H]4C)nc(N4CCOC[C@@H]4C)nc3n2)cc1CO [AZD8055]	0.0459 µM	0.0888 µM	19.1	18.2
O=C(CCCCCCC(=O)Nc1ccccc1)NO [Vorinostat]	2.04 µM	1.13 µM	6.81	9.94
N#CC[C@H](C1CCCC1)n1cc(-c2ncnc3[nH]ccc23)cn1 [Ruxolitinib]	> 4.17 µM	> 4.17 µM	0	0
N#Cc1ccc(C(c2ccc(C#N)cc2)n2cncn2)cc1 [Letrozole]	> 4.17 µM	> 4.17 µM	0	0
S=P(N1CC1)(N1CC1)N1CC1 [Thiotepa]	> 4.17 µM	> 4.17 µM	0	0
C[C@]12C=CC(=O)C=C1CC[C@@H]1[C@@H]2C(=O)C[C@@]2(C)[C@H]1CC[C@]2(O)C(=O)CO [Prednisone]	> 4.17 µM	> 4.17 µM	0	0
CS(=O)(=O)N1CCN(Cc2cc3nc(-c4cccc5[nH]ncc45)nc(N4CCOCC4)c3s2)CC1 [GDC-0941 (Pictilisib)]	2.53 µM	0.57 µM	7.18	12
COc1c2occc2cc2ccc(=O)oc12 [Methoxsalen]	> 4.17 µM	> 4.17 µM	0	0
NC1(c2ccc(-c3nc4ccn5c(=O)[nH]nc5c4cc3-c3ccccc3)cc2)CCC1 [MK-2206]	> 4.17 µM	> 4.17 µM	0	0
NCCCNCCSP(=O)(O)O [Amifostine]	> 4.17 µM	> 4.17 µM	0	0
C=CC[C@@H]1/C=C(\C)C[C@H](C)C[C@H](OC)[C@H]2O[C@@](O)(C(=O)C(=O)N3CCCC[C@H]3C(=O)O[C@H](/C(C)=C/[C@@H]3CC[C@@H](O)[C@H](OC)C3)[C@H](C)[C@@H](O)CC1=O)[C@H](C)C[C@@H]2OC [Tacrolimus]	> 4.17 µM	> 4.17 µM	0	0
CN1CCN(c2nc(C3=C(c4c[nH]c5ccccc45)C(=O)NC3=O)c3ccccc3n2)CC1 [Sotrastaurin]	> 4.17 µM	> 4.17 µM	0	0
O=C1c2c(O)ccc(O)c2C(=O)c2c(NCCNCCO)ccc(NCCNCCO)c21 [Mitoxantrone]	0.143 µM	0.134 µM	19.5	19.9
